These results are taken from US9695396B2, “Regenerated tissue comprising a stratified structure of epithelial cells” (JAPAN SCIENCE AND TECHNOLOGY CORPORATION, priority 2001, dated 2017).

Structures are written as SMILES.

The test system of data set [1] is regenerated normal bronchial epithelial tissue (NHBE). The data set is described as follows: cancer therapy sensitivity test by MTT assay, regenerated normal tissue, SuSa feeder layer (Embodiment 3). The settings on record: 10 μg/ml for 72 hours. On the procedure: (§1) The cancer therapy sensitivity test was conducted in comparison with a conventional two-dimensional culture MTT assay system.
(§2) In these figures, a column of the cancer name (e.g: AOI) corresponds to the sensitivity of the cancer cells in the two-dimensional culture.
(§3) Also in these figures, the brackets the MTT assay correspond, from the left, the normal epithelial cell name employed (this time a bronchial epithelium (NHBE) or prostatic epithelium (PrEC)), the culture medium (1/10-fold or 1-fold), the fibroblast name employed as a feeder layer (human skin-derived (SUSA) or lung-derived (NHLF)). […] The drug treatments with all of three drugs employed here were conducted at 10 μg/ml for 72 hours.
On the technique in general: Tetrazolium assays rely on reduction of a dye to a coloured formazan, in cell work by metabolically active cells.

Data set [2] has as its system prostatic cancer-derived DU-145 cancer cells. The data set is described as follows: cancer therapy sensitivity test by MTT assay, DU-145 on PrEC in stratified structure, SuSa feeder layer (Embodiment 3). It is filed as cell-based, human. As to conditions: 1/10-fold culture medium, 10 μg/ml for 72 hours.
For the next data set, the system named is AOI cancer tissue. The data set is described as follows: cancer therapy sensitivity test by MTT assay, AOI on NHBE, lung-derived fibroblasts (NHLF) as feeder layer. In kind it is cell-based, human. The settings on record: 10 μg/ml for 72 hours.
Data set [3] has as its system regenerated normal bronchial epithelial tissue (NHBE). As to the kind of experiment: cancer therapy sensitivity test by MTT assay, regenerated normal tissue, lung-derived fibroblasts (NHLF) as feeder layer. In kind it is cell-based, human. The settings on record: 10 μg/ml for 72 hours. On the procedure: as §1, §2, §3
The test system of a further data set is AOI lung cancer cells. The data set is described as follows: cancer therapy sensitivity test by MTT assay, AOI on NHBE in stratified structure, SuSa feeder layer (Embodiment 3). In kind it is cell-based, human. As to conditions: 10 μg/ml for 72 hours. On the procedure: as §1, §2, §3
In another data set the test system is AOI tumor. The data set is described as follows: AOI tumor transplanted to a nude mouse. It is filed as in vivo.
For a further data set, the system named is ACHN-L4 cells. As to the kind of experiment: cancer therapy sensitivity test by MTT assay on regenerated tissue (Embodiment 2), renal cancer. The settings on record: novel sensitivity test, ACHN-L4 on RPTEC/NHMC regenerated tissue. It is filed as cell-based, human.
The next data set concerns hepatoma cells Alex. As to the kind of experiment: cancer therapy sensitivity test by MTT assay on regenerated tissue (Embodiment 2), hepatoma. In kind it is cell-based, human. The settings on record: combination of irradiation with cisplatin; Alex on Nheps regenerated tissue.
[4] abbreviates: 1-fold culture medium, lung-derived fibroblast feeder.
Setting [5] is: 1/10-fold culture medium, lung-derived fibroblasts as feeder.

With `O=c1[nH]cc(F)c(=O)[nH]1` [5FU], the “proliferation of regenerated normal tissue” value in data set [1] (1-fold culture medium, 5FU alone) is “proliferation was rather promoted”. Also, the “growth of the regenerated normal bronchial epithelial tissue after removing co-cultured AOI cancer tissue” value in data set [1] (1/10-fold culture medium) is “tendency of the promotion of the growth”. Further, the “sensitivity of DU-145 cancer cells compared with the AOI cells” value in data set [2] is listed as “highly sensitive”. Moreover, the “sensitivity of the AOI cancer cell tissue in 3-dimensional culture” value in the data set with AOI cancer tissue (setting [4]) is given as “reduced sensitivity”. For the same compound, the “sensitivity of tissue in MTT assay” value (in the data set with AOI cancer tissue (setting [5]); in data set [3] (setting [5])) was “no tissue exhibited any sensitivity” in each case. In addition, the “sensitivity of the normal tissue in 3-dimensional culture” value in data set [3] (setting [4]) is reported as “reduced sensitivity”.
Turning to `CO[C@@]12[C@H](COC(N)=O)C3=C(C(=O)C(C)=C(N)C3=O)N1C[C@@H]1N[C@@H]12` [MMC, mitomycin], the “resistance of 3-dimensional AOI cancer tissue coexisting with the normal tissue compared with 2-dimensionally cultured AOI cells” value in the data set with AOI lung cancer cells (1/10-level medium, drug alone) is on record as “more resistant”. Moreover, the “resistance of 3-dimensionally growing normal tissue” value in data set [1] (1-fold level culture medium, drug alone) is reported as “rather more resistant”. The “resistance of 3-dimensional normal tissue coexisting with the cancer tissue compared with the normal tissue alone” value in data set [1] (1/10-level medium, drug alone) is “rather more resistant”. In the data set with AOI cancer tissue (1/10-fold culture medium), the “difference in sensitivity between the skin-derived and lung-derived fibroblasts” value is “no substantial difference”. In addition, the “sensitivity of AOI tumor to mitomycin compared with cisplatin” value with AOI tumor (nude mouse-transplanted tumor) is given as “rather more sensitive”.
Turning to `N.N.[Cl][Pt][Cl]` [cisplatin], the “sensitivity of cancer cells in the MTT assay” value in the data set on ACHN-L4 cells is “highly sensitive”. Besides, the “MTT assay result compared with the HDRA method” value in the data set with hepatoma cells Alex was “exhibited the difference in the effect”. Also, the “tendency of 3-dimensional tissue to be more resistant than two-dimensional culture” value with AOI lung cancer cells (degree influenced by growth factor level in medium) was “tendency described above was observed also”. Further, the “sensitivity of DU-145 cancer cells compared with the AOI cells” value in data set [2] was “rather resistant”. Moreover, in the data set on AOI cancer tissue (1-fold culture medium, lung-derived vs skin-derived fibroblast feeder), the “difference in the sensitivity of the AOI cancer tissue by the difference in the fibroblasts” value is recorded as “small”. Besides, the “body weight of the nude mouse reduced to (fraction)” value in the data set on AOI tumor (cisplatin at 10 mg/kg) is “about ⅔”. Further, the tumor growth entry with AOI tumor (cisplatin at 10 mg/kg, nude mouse) is “retarded growth was observed only for several days”.
